Reference: patent publication US20030203857A1, “Remedies” (priority 2000, published 2003)
Where “and” joins values, the source holds several entries; their conditions need not be identical. Equal values may be shown once.

Tests used:
[1] = tested on: HGF production in MRC-5 cells; assay: Enhancing activity for HGF production, MRC-5 cells, HGF ELISA of medium; assay type: cell-based, Human; settings: 24 hours, control = 100%
Procedure: MRC-5 cells (CCL 171: manufactured by DAINIPPON PHARMACEUTICAL CO., LTD., code. 02-021) were suspended in a DME medium containing 10% fetal bovine serum so as to have a concentration of 5×10^4 cells/cm^2. The suspension was put in a 48-well cell culture plate, and the cells were cultured at 37° C. in the presence of 5% CO2 gas for 24 hours. After culturing, the medium was exchanged. Thereafter, the sample was added, and the cells were cultured for another 24 hours. Subsequently, the medium was collected, and the amount of HGF in the medium was assayed using Quantikine Human Hepatocyte Growth Factor (HGF) ELISA Kit (manufactured by Funakoshi, code. RS-0641-00). […] Here, the addition of the sample was carried out by previously preparing aqueous solutions of the samples at various concentrations, and adding a given amount of each solution to the medium so as to have the above-mentioned final concentration. As the control, that with addition of a given amount of distilled water alone (final concentration of the sample: 0 μM) was used. The amount of HGF production was expressed as the relative value (%) when the HGF concentration in the cell culture medium of the control was defined as 100%. All experiments were carried out twice, and an average value was taken.

[2] = tested on: NGF production in L-M cells; assay: Enhancing activity for NGF production, L-M cells, NGF enzyme immunoassay of medium; assay type: cell-based, murine; settings: control = 100%
Procedure: L-M cells (ATCC CCL-1.2) from murine fibroblasts were suspended in an M199 medium (manufactured by ICN) containing 0.5% bactopeptone (manufactured by Gibco BRL) so as to have a concentration of 1.5×10^5 cells/ml. The suspension was put in a 96-well plate in an amount of 0.1 ml each well, and the cells were aseptically cultured. After culturing the cells for 3 days, the medium was removed therefrom, and exchanged with an M199 medium containing 0.5% bovine serum albumin (manufactured by Sigma). […] After the termination of the culture, the NGF concentration in the culture medium was determined by an enzyme immunoassay method (NGF Emax Immuno Assay System, manufactured by Promega). Incidentally, in the case where the final concentration of the iron-treated chlorogenic acid was 0 μM, a given amount of an aqueous solution obtained by an iron treatment in the absence of chlorogenic acid was added to the medium. In addition, for the purpose of comparison, the activity of the chlorogenic acid without the iron treatment was assayed in the same manner. As described above, that with addition of a given amount of distilled water alone (final concentration of chlorogenic acid without the iron treatment: 0 μM) was used as the control. The amount of NGF production was expressed as the relative value (%) when the NGF concentration in the cell culture medium of the control was defined as 100%. The experiment was carried out twice, and an average value was taken. The enhancing activity for NGF production of chlorogenic acid was enhanced by the iron treatment.

mouse = assay type: in vivo; settings: orally, single dose of 1 g/1 kg

3,5-dicaffeoylquinic acid
Amount of HGF Production ([1]; 1 μM): 142% | Amount of HGF Production ([1]; 10 μM): 206% | Amount of HGF Production ([1]; 100 μM): 290%

CCOC(=O)/C=C/c1ccc(O)c(O)c1 [Caffeic Acid Ethyl Ester, caffeic acid ethyl ester]
Amount of NGF Production ([2]; 0.0625 mg/ml): 1279.1%

COC(=O)/C=C/c1ccc(O)c(O)c1 [Caffeic Acid Methyl Ester, caffeic acid methyl ester]
Amount of NGF Production ([2]; 0.0625 mg/ml): 824.4% | Amount of NGF Production ([2]; 0.125 mg/ml): 889.6%

O=C(O)/C=C/c1ccc(O)c(O)c1 [caffeic acid]
Amount of NGF Production ([2]; 62.5 μM, 20 hours): 97.8% | Amount of NGF Production ([2]; 125 μM, 20 hours): 199.5% | Amount of NGF Production ([2]; 250 μM, 20 hours): 221.2% and 227.8% | Amount of NGF Production ([2]; 500 μM, 20 hours): 287.9% | Amount of NGF Production ([2]; 1000 μM, 20 hours): 269.3% | Amount of HGF Production ([1]; 1 μM): 85% | Amount of HGF Production ([1]; 10 μM): 117% | Amount of HGF Production ([1]; 100 μM): 196% | Amount of HGF Production ([1]; 1000 μM): 92% | Death after single oral administration (mouse): no cases of death

O=C(/C=C/c1ccc(O)c(O)c1)O[C@@H]1C[C@](O)(C(=O)O)C[C@@H](O)[C@H]1O [chlorogenic acid]
Amount of NGF Production ([2]; 125 μM, 20 hours): 124.6% | Amount of NGF Production ([2]; 250 μM, 20 hours): 308.5% and 192.8% | Amount of NGF Production ([2]; 500 μM, 20 hours): 351.1% and 382.2% and 328.5% and 231.9% | Amount of NGF Production ([2]; 1000 μM, 20 hours): 256.2% | Amount of HGF Production ([1]; 1 μM): 105% | Amount of HGF Production ([1]; 10 μM): 122% | Amount of HGF Production ([1]; 50 μM (as chlorogenic acid)): 148% | Amount of HGF Production ([1]; 100 μM): 302% | Amount of HGF Production ([1]; 500 μM): 479% | Amount of HGF Production ([1]; 1000 μM): 624% | Death after single oral administration (mouse): no cases of death

O=C(/C=C/c1ccc(O)c(O)c1)O[C@H]1[C@H](O)C[C@](O)(C(=O)O)C[C@H]1O [cryptochlorogenic acid, 4-caffeoyl-quinic acid]
Death after single oral administration (mouse): no cases of death

O=C(O[C@@H]1Cc2c(O)cc(O)cc2O[C@@H]1c1cc(O)c(O)c(O)c1)c1cc(O)c(O)c(O)c1 [epigallocatechin gallate]
Amount of HGF Production ([1]; 1 μM): 175% | Amount of HGF Production ([1]; 10 μM): 160% | Death after single oral administration (mouse): no cases of death

O=C(O)c1cc(O)c(O)c(O)c1 [gallic acid]
Amount of HGF Production ([1]; 1 μM): 112% | Amount of HGF Production ([1]; 10 μM): 217% | Amount of HGF Production ([1]; 100 μM): 576% | Death after single oral administration (mouse): no cases of death

O=c1cc(-c2ccc(O)c(O)c2)oc2cc(O)c([C@@H]3O[C@H](CO)[C@@H](O)[C@H](O)[C@H]3O)c(O)c12 [isoorientin]
Death after single oral administration (mouse): no cases of death

COc1cc(O)c(CC=C(C)C)c2c1C(=O)CC(c1ccc(O)cc1)O2 (centres unmarked) [isoxanthohumol]
Amount of NGF Production ([2]; 50 μM, 20 hours): 110.7% | Amount of NGF Production ([2]; 100 μM, 20 hours): 121.4% | Amount of NGF Production ([2]; 200 μM, 20 hours): 198.0%

O=c1c(O)c(-c2ccc(O)cc2)oc2cc(O)cc(O)c12 [kaemferol]
Death after single oral administration (mouse): no cases of death

O=c1c(O)c(-c2cc(O)c(O)c(O)c2)oc2cc(O)cc(O)c12 [myricetin]
Amount of HGF Production ([1]; 1 μM): 187% | Amount of HGF Production ([1]; 10 μM): 543% | Amount of HGF Production ([1]; 100 μM): 454% | Death after single oral administration (mouse): no cases of death

O=C(/C=C/c1ccc(O)c(O)c1)O[C@@H]1C[C@@](O)(C(=O)O)C[C@@H](O)[C@@H]1O [neochlorogenic acid, 5-caffeoyl-quinic acid]
Death after single oral administration (mouse): no cases of death

O=c1c(O)c(-c2ccc(O)c(O)c2)oc2cc(O)cc(O)c12 [quercetin]
Amount of HGF Production ([1]; 10 μM): 139% | Amount of HGF Production ([1]; 100 μM): 304% | Death after single oral administration (mouse): no cases of death

COc1cc2c(c(O)c1C(=O)/C=C/c1ccc(O)cc1)CC(O)C(C)(C)O2 (centres unmarked) [xanthohumol B]
Death after single oral administration (mouse): no cases of death

C=C(C)C(O)Cc1c(O)cc(OC)c(C(=O)/C=C/c2ccc(O)cc2)c1O (centres unmarked) [xanthohumol D]
Death after single oral administration (mouse): no cases of death
